1 compound from paper PMC5510229, “BCAT1 controls metabolic reprogramming in activated human macrophages and is associated with inflammatory diseases” (Nature Communications, 2017) can be followed below.

One assay concerns the target T1, recombinant human BCAT2 (Homo sapiens, UniProt O15382).
T1 construct: purchased Abcam
T1 sequence (O15382 28-392): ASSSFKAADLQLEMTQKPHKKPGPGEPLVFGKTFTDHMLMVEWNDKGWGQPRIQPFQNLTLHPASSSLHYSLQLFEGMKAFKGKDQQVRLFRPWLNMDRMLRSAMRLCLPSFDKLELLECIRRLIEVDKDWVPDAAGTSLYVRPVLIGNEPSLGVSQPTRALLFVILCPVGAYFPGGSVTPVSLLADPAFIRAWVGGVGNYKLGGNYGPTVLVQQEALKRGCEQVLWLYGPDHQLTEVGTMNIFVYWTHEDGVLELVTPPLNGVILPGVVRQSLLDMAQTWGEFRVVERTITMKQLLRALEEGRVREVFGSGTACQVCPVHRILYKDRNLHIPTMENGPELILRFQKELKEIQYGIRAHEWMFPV
The experiment in a line: BCAT2 aminotransferase enzymatic assay (continuous fluorometric). Format: biochemical.

Assay [1] has as its system nephrotoxic nephritis (NTN) model. The experiment in a line: Nephrotoxic nephritis (NTN, crescentic glomerulonephritis) in the WKY rat. The assay is classed as in vivo, Wistar-Kyoto (WKY) rat. The source says: Figure 5 Orally administrated ERG240 reduced the severity of crescentic glomerulonephritis in rats and CIA in mice. (a) Glomerular crescents, serum creatinine, and proteinuria levels measured in vehicle and ERG240 treated rats at day 10 following induction of nephrotoxic nephritis. At least n=4 rats were used in each group. (b) Col1a1 immunofluorescence (IF) quantification (left panel), representative IF and Sirius red staining images (middle panel) and Col1a1 qRT-PCR (normalized to Hprt) 28 days following NTS injection. Original magnification, × 20, at least n=4 animals were used in each group. (c) Clinical progression of CIA measured by the Mean Arthritis Index in vehicle and ERG240-treated animals in both studies (prophylactic and therapeutic, upper panel; at least n=6 animals per group). Histological analysis of joints from representative whole paws scored for inflammation, pannus formation, cartilage damage and bone resorption (lower panel). Error bars are s.e.m. Either Mann–Whitney or Student’s t-test were used for significance. *** P<0.001, ** P<0.01, * P<0.05. Scale bars, 50 μm.
Nephrotoxic nephritis (NTN) was induced in twelve week old male Wistar-Kyoto (WKY) rats by intravenous injection of 0.1 ml of nephrotoxic serum (NTS), as previously described. Five WKY rats received ERG240 (250 mg kg^−1) orally in 0.1% carboxymethylcellulose once a day for a duration of 10 days whereas the vehicle treated WKY rats had carboxymethylcellulose only for the same period. Nine days following NTS injection, urine was collected by placing rats in metabolic cages for 24 h with free access to food and water. Proteinuria was determined by the sulphosalicylic acid test and serum creatinine by the Creatinine Assay Kit (Abcam). After 10 or 28 days of NTN induction, rats were culled and the kidney was formalin fixed and paraffin embedded for immunohistochemistry. To quantify the number of macrophages infiltrating the glomeruli, formalin-fixed paraffin-embedded kidney sections were stained with mouse monoclonal antibody to ED-1 (Serotec, Oxford, UK), followed by an HRP-labelled anti-mouse polymer development system (Dako Ltd, UK). For the evaluation of total collagen, renal tissues were stained with Sirius red. For Col1a1 immunofluorescence, sections were blocked with BSA, incubated with the Col1a1 primary antibody raised in goat (Southern Biotech, 1/40 dilution), washed and re-incubated with secondary antibody (donkey anti-goat-FITC, 1/100 dilution, Abcam). For ED-1 staining, the cellular infiltrates in 20 consecutive glomeruli were quantified using an automated image analysis software (ImagePro Plus, Media Cybernetics, Bethesda, MD) and expressed as a percentage of total glomerular cross sectional area.

[2] abbreviates: 250 mg kg^−1 orally once a day, 10 days, day 10.

The structures appear in SMILES notation.

Take `CC(=O)C(C)CCC(=O)O` (stereo not drawn) [ERG240]: the “inhibition of BCAT2” value on recombinant human BCAT2 is on record as “no inhibition”. Also, in assay [1] (setting [2]), the glomerular crescent formation entry is reported as “significantly reduced”, the proteinuria result is recorded as “significantly reduced” and the serum creatinine entry was “significantly reduced”. Besides, the interstitial fibrosis entry in assay [1] (NTN model) is recorded as “reduced interstitial fibrosis”. Besides, in assay [1] (day 28), the “Col1a1 mRNA levels in the renal cortex” value is listed as “reduced”, the Sirius red staining result is listed as “reduced Sirius red staining” and the “collagen type I alpha I quantitative immunofluorescence in nephritic kidneys” value is “significant down-regulation”. The “glomerular infiltration of CD68 (ED1)-positive cells” value in assay [1] (rat, in vivo) is listed as “significantly decreased”.
